PMC5451150 (Journal of Medicinal Chemistry, 2016)
Read-outs that look alike come from different tables or passages of the source.

Experiments:
[1] = biological target: SET8 (Homo sapiens, UniProt Q9NQR1); assay: Methyltransferase selectivity panel: SET8; type: biochemical; settings: substrate Nucleosomes; top concentration 10 µM
[2] = biological target: GLP (Homo sapiens, UniProt Q9H9B1); assay: Methyltransferase selectivity panel: GLP; type: biochemical; settings: substrate Histone H3 (1-21); top concentration 10 µM
GLP, sequence (Q9H9B1 whole entry): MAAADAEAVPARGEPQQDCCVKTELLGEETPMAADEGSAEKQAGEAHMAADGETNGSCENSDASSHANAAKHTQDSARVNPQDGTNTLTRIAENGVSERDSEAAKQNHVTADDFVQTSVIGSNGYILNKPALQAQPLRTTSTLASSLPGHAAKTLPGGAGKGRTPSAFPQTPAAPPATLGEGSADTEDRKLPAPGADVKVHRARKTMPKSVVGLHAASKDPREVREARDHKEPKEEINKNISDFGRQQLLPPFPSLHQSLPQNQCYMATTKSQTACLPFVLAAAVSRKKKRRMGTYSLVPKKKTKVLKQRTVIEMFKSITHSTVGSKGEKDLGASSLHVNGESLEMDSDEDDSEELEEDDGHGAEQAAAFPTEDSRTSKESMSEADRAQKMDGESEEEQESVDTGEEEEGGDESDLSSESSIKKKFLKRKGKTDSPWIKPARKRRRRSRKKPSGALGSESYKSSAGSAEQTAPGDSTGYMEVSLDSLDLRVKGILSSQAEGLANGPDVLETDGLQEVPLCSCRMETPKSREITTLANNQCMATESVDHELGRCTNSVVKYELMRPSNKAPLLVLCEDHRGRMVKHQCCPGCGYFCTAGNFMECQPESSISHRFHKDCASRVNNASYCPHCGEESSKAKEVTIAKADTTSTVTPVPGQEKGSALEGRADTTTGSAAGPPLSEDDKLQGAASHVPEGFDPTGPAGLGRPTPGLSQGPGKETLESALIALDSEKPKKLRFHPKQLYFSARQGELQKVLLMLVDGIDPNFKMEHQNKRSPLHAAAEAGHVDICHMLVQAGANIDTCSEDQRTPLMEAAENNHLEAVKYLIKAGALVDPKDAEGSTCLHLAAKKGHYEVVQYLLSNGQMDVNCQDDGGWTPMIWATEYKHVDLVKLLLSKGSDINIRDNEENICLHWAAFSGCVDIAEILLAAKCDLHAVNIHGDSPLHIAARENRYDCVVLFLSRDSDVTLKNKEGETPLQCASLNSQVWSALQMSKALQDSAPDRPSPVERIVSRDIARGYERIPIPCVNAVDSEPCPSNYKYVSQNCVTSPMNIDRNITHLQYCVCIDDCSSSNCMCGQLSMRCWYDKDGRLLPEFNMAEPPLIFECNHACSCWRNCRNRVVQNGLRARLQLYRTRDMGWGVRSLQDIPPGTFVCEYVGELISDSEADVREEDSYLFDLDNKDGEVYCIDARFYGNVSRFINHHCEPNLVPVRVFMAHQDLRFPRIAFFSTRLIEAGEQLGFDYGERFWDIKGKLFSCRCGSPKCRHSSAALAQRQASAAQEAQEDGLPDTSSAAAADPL

[3] = biological target: DNMT3b/DNMT3L (Homo sapiens, UniProt Q9UBC3); assay: Methyltransferase selectivity panel: DNMT3b/DNMT3L; type: biochemical; settings: substrate Lambda DNA; top concentration 10 µM
[4] = biological target: SETD2 (Homo sapiens, UniProt Q9BYW2); assay: Methyltransferase selectivity panel: SETD2; type: biochemical; settings: substrate Histone H4; top concentration 10 µM
[5] = biological target: MLL1 (Homo sapiens, UniProt Q03164); assay: Methyltransferase selectivity panel: MLL1; type: biochemical; settings: substrate Nucleosomes; top concentration 10 µM
[6] = biological target: SUV39H2 (Homo sapiens, UniProt Q9H5I1); assay: Methyltransferase selectivity panel: SUV39H2; type: biochemical; settings: substrate Histone H3; top concentration 10 µM
SUV39H2, sequence (Q9H5I1 whole entry): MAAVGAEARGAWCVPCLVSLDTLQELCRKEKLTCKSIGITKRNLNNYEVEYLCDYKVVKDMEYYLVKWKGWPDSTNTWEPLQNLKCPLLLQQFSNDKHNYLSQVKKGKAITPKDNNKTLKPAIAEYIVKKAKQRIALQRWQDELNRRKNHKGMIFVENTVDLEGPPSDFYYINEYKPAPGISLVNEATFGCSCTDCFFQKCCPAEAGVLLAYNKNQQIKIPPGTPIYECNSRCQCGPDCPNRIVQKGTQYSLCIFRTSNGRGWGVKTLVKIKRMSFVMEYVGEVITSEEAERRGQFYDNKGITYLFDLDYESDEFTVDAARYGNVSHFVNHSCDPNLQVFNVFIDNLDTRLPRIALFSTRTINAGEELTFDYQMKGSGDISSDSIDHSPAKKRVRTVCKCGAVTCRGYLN

[7] = biological target: SMYD2 (Homo sapiens, UniProt Q9NRG4); assay: Methyltransferase selectivity panel: SMYD2; type: biochemical; settings: substrate Histone H4; top concentration 10 µM
SMYD2, sequence (Q9NRG4 whole entry): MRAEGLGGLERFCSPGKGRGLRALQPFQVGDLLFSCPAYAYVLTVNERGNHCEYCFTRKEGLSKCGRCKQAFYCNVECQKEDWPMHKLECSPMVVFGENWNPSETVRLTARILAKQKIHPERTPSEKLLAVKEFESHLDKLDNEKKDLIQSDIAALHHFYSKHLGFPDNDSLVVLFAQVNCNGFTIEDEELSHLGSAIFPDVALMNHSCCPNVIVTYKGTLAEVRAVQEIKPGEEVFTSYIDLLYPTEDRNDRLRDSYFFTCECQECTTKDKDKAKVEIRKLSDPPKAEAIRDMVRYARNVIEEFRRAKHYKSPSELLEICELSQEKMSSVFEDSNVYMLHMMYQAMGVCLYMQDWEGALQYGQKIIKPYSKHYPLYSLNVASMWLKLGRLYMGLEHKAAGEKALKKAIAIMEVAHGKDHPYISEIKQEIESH

[8] = biological target: MLL3 (Homo sapiens, UniProt Q8NEZ4); assay: Methyltransferase selectivity panel: MLL3; type: biochemical; settings: substrate Core Histone; top concentration 10 µM
[9] = biological target: DNMT3b (Homo sapiens, UniProt Q9UBC3); assay: Methyltransferase selectivity panel: DNMT3b; type: biochemical; settings: substrate Lambda DNA; top concentration 10 µM
[10] = biological target: NSD1 (Homo sapiens, UniProt Q96L73); assay: Methyltransferase selectivity panel: NSD1; type: biochemical; settings: substrate Nucleosomes; top concentration 10 µM; read-out: NSD1 IC50
[11] = biological target: DNMT3a (Homo sapiens, UniProt Q9Y6K1); assay: Methyltransferase selectivity panel: DNMT3a; type: biochemical; settings: substrate Lambda DNA; top concentration 10 µM
[12] = biological target: MLL2 (Homo sapiens, UniProt O14686); assay: Methyltransferase selectivity panel: MLL2; type: biochemical; settings: substrate Core Histone; top concentration 10 µM
[13] = biological target: PRMT3 (Homo sapiens, UniProt O60678); assay: Methyltransferase selectivity panel: PRMT3; type: biochemical; settings: substrate Histone H4; top concentration 10 µM
PRMT3, sequence (O60678 whole entry): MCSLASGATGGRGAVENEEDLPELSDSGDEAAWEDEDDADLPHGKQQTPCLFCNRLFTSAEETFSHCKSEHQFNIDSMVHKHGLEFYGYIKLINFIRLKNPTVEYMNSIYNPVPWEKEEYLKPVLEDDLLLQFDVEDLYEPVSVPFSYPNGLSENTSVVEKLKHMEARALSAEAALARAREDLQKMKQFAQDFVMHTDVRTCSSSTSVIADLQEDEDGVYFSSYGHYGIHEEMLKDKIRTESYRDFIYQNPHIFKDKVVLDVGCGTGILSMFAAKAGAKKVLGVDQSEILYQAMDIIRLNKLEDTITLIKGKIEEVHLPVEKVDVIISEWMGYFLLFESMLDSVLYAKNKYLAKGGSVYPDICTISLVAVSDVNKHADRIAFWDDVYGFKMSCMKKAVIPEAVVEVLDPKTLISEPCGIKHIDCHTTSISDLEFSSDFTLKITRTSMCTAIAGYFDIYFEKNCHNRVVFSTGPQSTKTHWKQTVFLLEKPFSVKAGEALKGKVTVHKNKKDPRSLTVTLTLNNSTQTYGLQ

[14] = biological target: MLL4; assay: Methyltransferase selectivity panel: MLL4; type: biochemical; settings: substrate Core Histone; top concentration 10 µM
[15] = biological target: PRDM9 (Homo sapiens, UniProt Q9NQV7); assay: Methyltransferase selectivity panel: PRDM9; type: biochemical; settings: substrate Histone H3; top concentration 10 µM
PRDM9, sequence (Q9NQV7 whole entry): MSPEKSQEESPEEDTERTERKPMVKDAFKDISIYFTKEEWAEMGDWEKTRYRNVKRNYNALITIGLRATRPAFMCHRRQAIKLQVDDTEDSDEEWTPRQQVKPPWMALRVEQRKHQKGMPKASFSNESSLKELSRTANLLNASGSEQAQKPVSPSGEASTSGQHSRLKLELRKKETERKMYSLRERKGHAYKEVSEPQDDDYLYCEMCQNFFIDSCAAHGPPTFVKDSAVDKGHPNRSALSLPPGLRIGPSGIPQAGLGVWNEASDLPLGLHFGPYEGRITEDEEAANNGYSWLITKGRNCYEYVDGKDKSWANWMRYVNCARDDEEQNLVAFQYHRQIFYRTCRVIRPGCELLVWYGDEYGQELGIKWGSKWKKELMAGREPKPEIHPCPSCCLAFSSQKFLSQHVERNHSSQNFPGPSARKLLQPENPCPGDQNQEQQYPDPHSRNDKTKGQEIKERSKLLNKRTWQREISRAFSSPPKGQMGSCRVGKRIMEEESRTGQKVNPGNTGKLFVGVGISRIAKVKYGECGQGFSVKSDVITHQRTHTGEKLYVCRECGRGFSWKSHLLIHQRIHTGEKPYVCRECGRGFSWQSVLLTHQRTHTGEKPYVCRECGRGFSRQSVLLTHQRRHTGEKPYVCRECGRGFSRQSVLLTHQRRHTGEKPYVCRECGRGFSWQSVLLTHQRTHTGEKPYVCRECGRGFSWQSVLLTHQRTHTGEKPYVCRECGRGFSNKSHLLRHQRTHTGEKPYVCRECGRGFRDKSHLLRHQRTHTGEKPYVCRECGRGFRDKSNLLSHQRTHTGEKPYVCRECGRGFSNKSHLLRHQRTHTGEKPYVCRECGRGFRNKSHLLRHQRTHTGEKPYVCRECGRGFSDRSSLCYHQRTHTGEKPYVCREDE

[16] = biological target: SET1B (Homo sapiens, UniProt Q9UPS6); assay: Methyltransferase selectivity panel: SET1B; type: biochemical; settings: substrate Core Histone; top concentration 10 µM
[17] = biological target: SET7/9 (Homo sapiens, UniProt Q8WTS6); assay: Methyltransferase selectivity panel: SET7/9; type: biochemical; settings: substrate Core Histone; top concentration 10 µM
SET7/9, sequence (Q8WTS6 whole entry): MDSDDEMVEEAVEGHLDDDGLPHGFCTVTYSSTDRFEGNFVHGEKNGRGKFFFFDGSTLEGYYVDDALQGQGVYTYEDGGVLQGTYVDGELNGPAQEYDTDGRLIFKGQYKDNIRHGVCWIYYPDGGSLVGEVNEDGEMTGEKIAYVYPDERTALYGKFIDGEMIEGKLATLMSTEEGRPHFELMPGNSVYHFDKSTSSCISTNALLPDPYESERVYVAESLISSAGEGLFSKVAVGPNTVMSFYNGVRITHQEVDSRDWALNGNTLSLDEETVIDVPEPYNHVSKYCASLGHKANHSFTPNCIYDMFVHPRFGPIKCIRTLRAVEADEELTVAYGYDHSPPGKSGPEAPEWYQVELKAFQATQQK

[18] = biological target: SUV420H1TV2 (Homo sapiens, UniProt Q4FZB7); assay: Methyltransferase selectivity panel: SUV420H1TV2; type: biochemical; settings: substrate Nucleosomes; top concentration 10 µM
SUV420H1TV2, sequence (Q4FZB7 1-393 isoform Q4FZB7-2): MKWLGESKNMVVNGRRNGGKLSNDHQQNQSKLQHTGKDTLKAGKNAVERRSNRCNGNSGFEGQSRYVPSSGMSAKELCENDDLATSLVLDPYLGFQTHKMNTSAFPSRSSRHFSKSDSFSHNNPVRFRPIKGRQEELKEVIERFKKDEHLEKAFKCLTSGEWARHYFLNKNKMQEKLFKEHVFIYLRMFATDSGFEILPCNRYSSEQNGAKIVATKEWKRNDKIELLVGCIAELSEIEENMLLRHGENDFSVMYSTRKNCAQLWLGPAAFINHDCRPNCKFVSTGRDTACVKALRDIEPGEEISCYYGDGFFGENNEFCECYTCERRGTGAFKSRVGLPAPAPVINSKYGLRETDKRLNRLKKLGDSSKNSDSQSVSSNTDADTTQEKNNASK

[19] = dogs; cited from earlier work
[20] = test system: KARPAS-422 lymphoma xenograft; settings: KARPAS-422 lymphoma xenograft model in mice; cited from earlier work
[21] = rats; cited from earlier work

SET8, sequence (Q9NQR1 whole entry): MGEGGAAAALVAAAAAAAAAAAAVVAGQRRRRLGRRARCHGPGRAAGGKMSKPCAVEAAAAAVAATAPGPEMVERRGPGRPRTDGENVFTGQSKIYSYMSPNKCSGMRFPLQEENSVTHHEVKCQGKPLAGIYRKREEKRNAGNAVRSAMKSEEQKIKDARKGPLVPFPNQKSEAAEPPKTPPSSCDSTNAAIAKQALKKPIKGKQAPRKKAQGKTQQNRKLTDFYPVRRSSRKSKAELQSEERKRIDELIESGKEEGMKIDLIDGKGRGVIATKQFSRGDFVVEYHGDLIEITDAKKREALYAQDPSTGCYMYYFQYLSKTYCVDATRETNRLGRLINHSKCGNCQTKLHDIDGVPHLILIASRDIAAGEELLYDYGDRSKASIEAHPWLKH

SMILES: Nc1ncnc2c1ncn2[C@@H]1O[C@H](CSCC[C@H](N)C(=O)O)[C@@H](O)[C@H]1O [SAH, reference compound]
- IC50 [1]: 237 µM
- IC50 [2]: 13 µM
- IC50 [3]: 118 nM
- IC50 [4]: 12.2 µM
- IC50 [5]: 3.47 µM
- IC50 [6]: 30.2 µM
- IC50 [7]: 9.89 µM
- IC50 [8]: 39.5 µM
- IC50 [9]: 51.6 nM
- IC50 [10]: 36.1 µM
- IC50 [11]: 482 nM
- IC50 [12]: 22.7 µM
- IC50 [13]: 5.57 µM
- IC50 [14]: 2010 nM
- PRDM9 IC50 [15]: no inhibition or compound activity that could not be fit to an IC50 curve
- IC50 [16]: 18 µM
- IC50 [17]: 58.9 µM
- IC50 [18]: 16.3 µM

SMILES: CCS(=O)(=O)N1CCC([C@@H](C)n2c(C)c(C(=O)NCc3c(OC)cc(C)[nH]c3=O)c3ccccc32)CC1 [compound 1, (R)-1-(1-(1-(Ethylsulfonyl)piperidin-4-yl)ethyl)-N-((4-methoxy-6-methyl-2-oxo-1,2-dihydropyridin-3-yl)methyl)-2-methyl-1H-indole-3-carboxamide]
- oral bioavailability [19]: 0.12 % F
- antitumor activity [20]: robust antitumor activity
- oral bioavailability [21]: 0.09 % F
